Measurements taken from patent US20170150719A1, “FUNGICIDAL PYRAZOLES AND THEIR MIXTURES” (E I DU PONT DE NEMOURS AND COMPANY, priority 2010, published 2017).
Marks after values point to notes of the source that are not given here.

Assays:
[1] = tested on: Blumeria graminis f. sp. tritici; experiment: Test I: wheat powdery mildew, preventive spray on wheat seedlings, visual disease rating; conditions: for Test I rating (disease control) / Test I rating (% disease control) / Test I rating (disease control), value marked *: wheat powdery mildew; for Test I rating (% disease control): preventive spray, rating without asterisk; for Test I rating (disease control), value marked *: rating marked with asterisk (*), not explained in the text shown
Alternaria solani = experiment: Test B: tomato early blight, preventive spray on tomato seedlings, visual disease rating; conditions: for Test B rating (disease control) / Test B rating (% disease control) / Test B rating (disease control), value marked *: tomato early blight; for Test B rating (disease control) / Test B rating (% disease control): 100 = 100% disease control; for Test B rating (disease control): 0 = no disease control relative to the controls; for Test B rating (% disease control): preventive spray, rating without asterisk; for Test B rating (disease control), value marked *: rating marked with asterisk (*), other test condition, not explained in the text shown
Botrytis cinerea = experiment: Test A: tomato Botrytis, preventive spray on tomato seedlings, visual disease rating; conditions: for Test A rating (disease control) / Test A rating (% disease control) / Test A rating (disease control), value marked *: tomato Botrytis; for Test A rating (% disease control): preventive spray, 0 = no control relative to controls, rating without asterisk; for Test A rating (disease control), value marked *: rating marked with asterisk (*), other test condition, not explained in the text shown
Septoria tritici = experiment: Test F: wheat leaf blotch, preventive spray on wheat seedlings, visual disease rating; assay type: in vivo; design: Test F rating (disease control), value marked *: concentration or dose not given beside the values; conditions: for Test F rating (% disease control): preventive spray, rating without asterisk; for Test F rating (disease control), value marked *: rating marked with asterisk (*), other test condition, not explained in the text shown
Source text: (§1) A hyphen (-) indicates no test results.

Septoria nodorum = experiment: Test E: Septoria glume blotch, preventive spray on wheat seedlings, visual disease rating; conditions: for Test E rating (disease control) / Test E rating (disease control), value marked *: Septoria glume blotch; for Test E rating (% disease control): Septoria glume blotch on wheat, preventive spray, rating without asterisk; for Test E rating (disease control), value marked *: rating marked with asterisk (*), other test condition, not explained in the text shown
[2] = tested on: Puccinia recondita f. sp. tritici; experiment: Test H: wheat leaf rust, preventive spray on wheat seedlings, visual disease rating; conditions: for Test H rating (disease control) / Test H rating (% disease control) / Test H rating (disease control), value marked *: wheat leaf rust; for Test H rating (disease control): sprayed the day before inoculation; for Test H rating (% disease control): preventive spray, rating without asterisk; for Test H rating (disease control), value marked *: preventive, rating marked with asterisk (*), not explained in the text shown
[3] = tested on: Puccinia recondita f. sp. tritici; experiment: Test G: wheat leaf rust, spray after inoculation (curative) on wheat seedlings, visual disease rating; assay type: in vivo; conditions: for Test G rating (% disease control): spray after inoculation, rating without asterisk; for Test G rating (disease control), value marked *: rating marked with asterisk (*), not explained in the text shown
Source text: as §1

[4] = 100 = 100% disease control, 0 = no disease control relative to the controls
[5] = 100 = 100% disease control, 0 = no disease control
[6] = sprayed after inoculation, 100 = 100% disease control, 0 = no disease control

| Structure (SMILES) | Test I rating (disease control) [1, 4] [%] | Test B rating (disease control) (Alternaria solani) [%] | Test A rating (disease control) (Botrytis cinerea; [4]) [%] | Test F rating (disease control) (Septoria tritici; [4]) [%] | Test E rating (disease control) (Septoria nodorum; [4]) [%] | Test H rating (disease control) [2, 5] [%] | Test G rating (disease control) [3, 6] [%] | Test I rating (% disease control) ([1]; 100 = 100% disease control) [%] | Test B rating (% disease control) (Alternaria solani) [%] | Test A rating (% disease control) (Botrytis cinerea; 100 = 100% disease control) [%] | Test F rating (% disease control) (Septoria tritici; 100 = 100% disease control) [%] | Test E rating (% disease control) (Septoria nodorum; 100 = 100% disease control) [%] | Test H rating (% disease control) ([2]; 100 = 100% disease control) [%] | Test G rating (% disease control) ([3]; 100 = 100% disease control) [%] | other results |
| --- | --- | --- | --- | --- | --- | --- | --- | --- | --- | --- | --- | --- | --- | --- | --- |
| Cc1nn(C)c(Nc2c(Cl)cc(Cl)cc2Cl)c1-c1ccc(F)cc1Cl [compound 170] | 79 | 0 | 65 | 100 | 0 | 98 | 79 |  |  |  |  |  |  |  |  |
| Cc1nn(C)c(Nc2c(Cl)cc(Cl)cc2I)c1-c1ccc(F)cc1Cl [compound 197] |  |  |  |  |  |  |  | 94 | 77 | 100 | 100 | 0 | 97 | 9 |  |
| CCOc1ccc(-c2c(C)nn(C)c2Nc2c(F)cc(Cl)cc2Cl)c(Cl)c1 [compound 202] |  |  |  |  |  |  |  | 95 | 77 | 99 | 100 | 0 | 92 | 35 |  |
| Cc1nn(C)c(Oc2c(F)cc(C#N)cc2F)c1-c1c(F)cc(F)cc1F [Compound 8, 4-[[1,3-dimethyl-4-(2,4,6-trifluorophenyl)-1H-pyrazol-5-yl]oxy]-3,5-difluorobenzonitrile] |  |  |  |  |  |  |  |  |  |  |  |  |  |  | Test I rating (disease control), value marked * [1]: 60* %; Test B rating (disease control), value marked * (Alternaria solani): 98* %; Test A rating (disease control), value marked * (Botrytis cinerea): 99* %; Test F rating (disease control), value marked * (Septoria tritici): 47* %; Test E rating (disease control), value marked * (Septoria nodorum): 0* %; Test H rating (disease control), value marked * [2]: 79* %; Test G rating (disease control), value marked * ([3]; sprayed after inoculation): 15* % |
| Cc1nn(C)c(Nc2c(F)cc(Br)cc2Br)c1-c1ccc(F)cc1Cl [compound 212] |  |  |  |  |  |  |  | 100 | 100 | 98 | 100 | 100 | 100 | 97 |  |
| Cc1nn(C)c(Nc2c(Cl)cc(Cl)cc2I)c1-c1ccc(F)cc1F [compound 210] |  |  |  |  |  |  |  | 0 | 0 | 3 | 100 | 0 | 97 | 0 |  |
| COc1ccc(-c2c(C)nn(C)c2Oc2ccc(C#N)cc2Cl)c(Br)c1 [compound 99] | 89 | 0 | 99 | 100 | 0 | 97 | 0 |  |  |  |  |  |  |  |  |
| Cc1nn(C)c(Nc2c(F)cc(Br)cc2F)c1-c1ccc(F)cc1Br [compound 163] |  |  |  |  |  |  |  |  |  |  |  |  |  |  | Test I rating (disease control), value marked * [1]: 100* %; Test B rating (disease control), value marked * (Alternaria solani): 77* %; Test A rating (disease control), value marked * (Botrytis cinerea): 100* %; Test F rating (disease control), value marked * (Septoria tritici): 100* %; Test E rating (disease control), value marked * (Septoria nodorum): 60* %; Test H rating (disease control), value marked * [2]: 100* %; Test G rating (disease control), value marked * ([3]; sprayed after inoculation): 91* % |
| Cc1nn(C)c(Nc2c(F)cc(F)cc2Br)c1-c1ccc(F)cc1I [compound 226] |  |  |  |  |  |  |  | 100 | 97 | 97 | 100 | 60 | 99 | 0 |  |
| Cc1nn(C)c(Nc2ccc(F)cc2Br)c1-c1ccc(F)cc1Br [compound 95] | 100 | 97 | 100 | 100 | 51 | 100 | 91 |  |  |  |  |  |  |  |  |
| COc1cc(F)c(-c2c(C)nn(C)c2Oc2c(F)cc(C#N)cc2F)c(F)c1 [compound 38] | 97 | 94 | 99 | 99 | 87 | 96 | 0 |  |  |  |  |  |  |  |  |
| COc1ccc(Nc2c(-c3c(F)cccc3F)c(C)nn2C)c(F)c1 [compound 51] | 100 | 99 | 100 | 98 | 0 | 68 | 0 |  |  |  |  |  |  |  |  |
| Cc1nn(C)c(Nc2c(F)cc(F)cc2Cl)c1-c1c(F)cccc1F [Compound 86, N-(2-chloro-4,6-difluorophenyl)-4-(2,6-difluorophenyl)-1,3-dimethyl-1H-pyrazol-5-amine] |  |  |  |  |  |  |  |  |  |  |  |  |  |  | pest or weed control at 200 µg/mL ([1]; Blumeria graminis, in Triticum aestivum, read-out: Test I rating (disease control), wheat powdery mildew, 100 = 100% disease control, 0 = no disease control relative to the controls): 100%; pest or weed control at 200 µg/mL (Alternaria solani; Alternaria solani, in Solanum lycopersicum, read-out: Test B rating (disease control)): 99%; pest or weed control at 200 µg/mL (Botrytis cinerea; Botrytis cinerea, in Solanum lycopersicum, read-out: Test A rating (disease control), tomato Botrytis, 100 = 100% disease control, 0 = no disease control relative to the controls): 100%; pest or weed control at 200 µg/mL (Septoria tritici; Zymoseptoria tritici, 100 = 100% disease control, 0 = no disease control relative to the controls): 100%; pest or weed control at 200 µg/mL (Septoria nodorum; Parastagonospora nodorum, in Triticum aestivum, read-out: Test E rating (disease control), Septoria glume blotch, 100 = 100% disease control, 0 = no disease control relative to the controls): 90%; pest or weed control at 200 µg/mL ([2]; read-out: Test H rating (disease control), wheat leaf rust, sprayed the day before inoculation, 100 = 100% disease control, 0 = no disease control): 100%; pest or weed control at 200 µg/mL [3, 6]: 0% |
| COc1cc(F)c(Nc2c(-c3c(F)cc(OC)cc3F)c(C)nn2C)c(F)c1 [compound 21] | 94 | 100 | 100 | 99 | 89 | 96 | 99 |  |  |  |  |  |  |  |  |
| Cc1nn(C)c(Nc2c(F)cc(I)cc2F)c1-c1ccc(F)cc1F [compound 216] |  |  |  |  |  |  |  | 99 | 0 | 100 | 100 | 60 | 95 | 18 |  |
| Cc1nn(C)c(Nc2ccc(Br)cc2F)c1-c1ccc(F)cc1Br [compound 169] | 99 | 0 | 100 | 100 | 60 | 96 | 23 |  |  |  |  |  |  |  |  |
| Cc1nn(C)c(Nc2c(Cl)cc(Br)cc2Cl)c1-c1ccc(F)cc1F [compound 155] | 99 | 0 | 100 | 100 | 0 | 97 | 94 |  |  |  |  |  |  |  |  |
| COc1cc(F)c(Nc2c(-c3ccccc3F)c(C)nn2C)c(F)c1 [compound 54] | 99 | 100 | 97 | 99 | 67 | 94 | 27 |  |  |  |  |  |  |  |  |
| Cc1nn(C)c(Nc2ccc(Br)cc2Br)c1-c1ccc(F)cc1Cl [compound 183] |  |  |  |  |  |  |  | 98 | 0 | 100 | 100 | 0 | 96 | 54 |  |
| COc1ccc(-c2c(C)nn(C)c2Nc2ccc(F)cc2F)c(Cl)c1 [compound 42] | 100 | 99 | 98 | 99 | 0 | 100 | 8 |  |  |  |  |  |  |  |  |
